We go through 7 molecules from PubChem BioAssay (NCI).

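In this assay, cells in 96-well plates receive the compound at five concentrations for 48 hours. Endpoints are linearly interpolated between the surrounding concentrations. TGI marks complete inhibition of growth.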 Bounds are passed on as bounds.

Some test systems named below: BT-549 breast; HCT-116 colon; MALME-3M melanoma; K-562 leukemia; CAKI-1 renal; A498 renal; OVCAR-3 ovarian; LOX IMVI melanoma; SK-MEL-5 melanoma; MCF7 breast; HCC-2998 colon; SN12C renal; EKVX NSCLC; PC-3 prostate; MDA-MB-435; NCI-H460 lung; SNB-75 CNS; SK-OV-3 ovarian; SK-MEL-2 melanoma; SF-539 CNS.
Holding throughout (assay): growth of human tumour cells (NCI), 48 h

For `COC1(c2ccc(Cl)cc2)SC=C(C)n2c1noc2=O` (stereo unspecified), the TGI in the assay on BT-549 breast, with HCT-116 colon, in the assay on MALME-3M melanoma, in the assay on K-562 leukemia, with CAKI-1 renal and with A498 renal was more than 100 µM throughout. For the same molecule, the TGI in the assay with OVCAR-3 ovarian, with LOX IMVI melanoma, with SK-MEL-5 melanoma, in the assay with MCF7 breast, with HCC-2998 colon and with SN12C renal was more than 100 µM each time. Further, the TGI in the assay with EKVX NSCLC, in the assay on PC-3 prostate, in the assay on MDA-MB-435 and in the assay on NCI-H460 lung was more than 100 µM each time.
In the case of `CC1OC(OC2C(OC(=O)[C@]34CCC(C)(C)C[C@H]3C3=CC[C@@H]5[C@@]6(C)CC[C@H](OC7OC(C(=O)O)C(O)C(O)C7O)C(C)(C)[C@@H]6CC[C@@]5(C)[C@]3(C)C[C@H]4O)OCC(O)C2O)C(O)C(O)C1OC1OCC(OC2OCC(O)C(O)C2O)C(O)C1O` (stereo partly specified), the TGI with SNB-75 CNS turned out to be 26.1 µM; in the assay on BT-549 breast, 13 µM; with HCT-116 colon, 16.6 µM; in the assay with MALME-3M melanoma, 25.3 µM; in the assay with K-562 leukemia it was 47.8 µM; in the assay on SK-OV-3 ovarian it was 26.9 µM. In addition, the TGI in the assay with CAKI-1 renal worked out at 21.6 µM; with A498 renal, 3.06 µM; in the assay with SK-MEL-2 melanoma it was 11.7 µM; in the assay with OVCAR-3 ovarian it was 30 µM; in the assay with LOX IMVI melanoma, 24.2 µM; with SK-MEL-5 melanoma it was 27.2 µM. The TGI came to 17.6 µM in the assay on MCF7 breast; 3.03 µM with HCC-2998 colon; 5.68 µM in the assay on SN12C renal; 15.2 µM in the assay on EKVX NSCLC; 19.3 µM with PC-3 prostate; 17.8 µM in the assay on MDA-MB-435. The molecule further gave a TGI in the assay on NCI-H460 lung of 32.6 µM.
Consider `COc1cccc(-c2nc3ccccc3c(=O)[nH]2)c1`, for which the TGI in the assay with BT-549 breast was 61.8 µM; with HCT-116 colon, 60.1 µM; with MALME-3M melanoma, 52.5 µM; with K-562 leukemia it was more than 100 µM; with SK-OV-3 ovarian, 48.2 µM; in the assay with CAKI-1 renal it was 37.1 µM. Moreover, the TGI was 51.6 µM in the assay with A498 renal; more than 100 µM with SK-MEL-2 melanoma; 42.7 µM in the assay with OVCAR-3 ovarian; more than 100 µM in the assay with LOX IMVI melanoma; 65.8 µM in the assay with SK-MEL-5 melanoma; 43.1 µM with MCF7 breast. The TGI in the assay on HCC-2998 colon is 54.3 µM; in the assay on SN12C renal it was 82.2 µM; with EKVX NSCLC, 87.7 µM; in the assay with PC-3 prostate, 41.7 µM; with SF-539 CNS it was 50.3 µM; in the assay with MDA-MB-435 it was 28.1 µM. This molecule also came in with a TGI with NCI-H460 lung of 42 µM.
Take `COc1cc2c(cc1OC)[C@@H]1[C@H](C#N)C(=O)C(C)(C)N1CC2`: the TGI with BT-549 breast, in the assay with HCT-116 colon, with MALME-3M melanoma, in the assay with K-562 leukemia, in the assay with SK-OV-3 ovarian and with CAKI-1 renal was more than 100 µM throughout. Besides, the TGI in the assay on A498 renal, with OVCAR-3 ovarian, with LOX IMVI melanoma, with SK-MEL-5 melanoma, in the assay on MCF7 breast and in the assay on HCC-2998 colon was more than 100 µM each time. In addition, the TGI with SN12C renal, with EKVX NSCLC, in the assay with PC-3 prostate, in the assay with MDA-MB-435 and in the assay on NCI-H460 lung was more than 100 µM in each case.
As to `O=C1NC(N/N=C/c2ccccc2)=N/C1=C\c1ccco1`, the TGI in the assay with SNB-75 CNS was more than 100 µM; with BT-549 breast it was 70.6 µM; in the assay on HCT-116 colon, more than 100 µM; with MALME-3M melanoma it was more than 100 µM; in the assay on SK-OV-3 ovarian, more than 100 µM; in the assay with CAKI-1 renal, more than 100 µM. Besides, the TGI in the assay on A498 renal, in the assay with SK-MEL-2 melanoma, in the assay with OVCAR-3 ovarian, in the assay on SK-MEL-5 melanoma, with MCF7 breast and in the assay on HCC-2998 colon was more than 100 µM each time. Moreover, the TGI with SN12C renal is more than 100 µM; with EKVX NSCLC it was more than 100 µM; with PC-3 prostate it was more than 100 µM; in the assay on MDA-MB-435, more than 100 µM; in the assay on NCI-H460 lung, 45.5 µM.
`C[N+](C)(CCCn1ccnc1[N+](=O)[O-])CCCn1ccnc1[N+](=O)[O-]`: the TGI in the assay with SNB-75 CNS, in the assay with BT-549 breast, in the assay with HCT-116 colon, in the assay on MALME-3M melanoma, in the assay with K-562 leukemia and in the assay on SK-OV-3 ovarian was more than 100 µM each time. Also, the TGI with CAKI-1 renal, in the assay with A498 renal, in the assay on SK-MEL-2 melanoma, in the assay on OVCAR-3 ovarian, in the assay on LOX IMVI melanoma and with SK-MEL-5 melanoma was more than 100 µM throughout. Besides, the TGI in the assay on MCF7 breast, in the assay on SN12C renal, in the assay with EKVX NSCLC, in the assay on PC-3 prostate, in the assay on SF-539 CNS and with MDA-MB-435 was more than 100 µM in each case. For the same molecule, in the assay on NCI-H460 lung, the TGI is more than 100 µM.
For `Cc1ccc(N=N/C(=N/NC(=O)c2cc(Cl)ccc2O)c2ccc(N(CCC#N)CCC#N)cc2C)cc1`, the TGI in the assay with SNB-75 CNS is 86.8 µM; in the assay on BT-549 breast, 88.7 µM; in the assay on HCT-116 colon, 54.4 µM; in the assay with MALME-3M melanoma it was 47.8 µM; in the assay on K-562 leukemia, more than 100 µM; with SK-OV-3 ovarian, 74.2 µM. Moreover, the TGI was more than 100 µM in the assay on CAKI-1 renal; 49.5 µM with A498 renal; 68.4 µM with SK-MEL-2 melanoma; 55.9 µM in the assay on OVCAR-3 ovarian; 36.4 µM in the assay with SK-MEL-5 melanoma; more than 100 µM with MCF7 breast. In addition, the TGI with HCC-2998 colon was 68.5 µM; with SN12C renal, 85.6 µM; in the assay on EKVX NSCLC, more than 100 µM; in the assay with PC-3 prostate it was more than 100 µM; in the assay with SF-539 CNS, 46.4 µM; in the assay on MDA-MB-435, more than 100 µM. In the assay on NCI-H460 lung, this molecule displayed a TGI of 68.8 µM.
